Columns and labels:
Test in all cases: KiNativ chemical proteomics profiling in HeLa and PC3 cell lysates
Format in all cases: binding
[1] = biological target: T1, selected panels of kinases in HeLa and PC3 cell lysates (Homo sapiens, UniProt Q15131); conditions: 10 uM; proteome PC3; peptide DLkVSNLLMTDK; labeling site Lys2
T1 construct: endogenous in cells; host or cells: HeLa and PC3 cell lysates

[2] = biological target: T2, selected panels of kinases in HeLa and PC3 cell lysates (Homo sapiens, UniProt Q9BZL6); conditions: 10 uM, PKD2, peptide DVAVkVIDK, labeling site Lys1
T2 construct: endogenous in cells; host or cells: HeLa and PC3 cell lysates
T2 sequence (Q9BZL6 1-878): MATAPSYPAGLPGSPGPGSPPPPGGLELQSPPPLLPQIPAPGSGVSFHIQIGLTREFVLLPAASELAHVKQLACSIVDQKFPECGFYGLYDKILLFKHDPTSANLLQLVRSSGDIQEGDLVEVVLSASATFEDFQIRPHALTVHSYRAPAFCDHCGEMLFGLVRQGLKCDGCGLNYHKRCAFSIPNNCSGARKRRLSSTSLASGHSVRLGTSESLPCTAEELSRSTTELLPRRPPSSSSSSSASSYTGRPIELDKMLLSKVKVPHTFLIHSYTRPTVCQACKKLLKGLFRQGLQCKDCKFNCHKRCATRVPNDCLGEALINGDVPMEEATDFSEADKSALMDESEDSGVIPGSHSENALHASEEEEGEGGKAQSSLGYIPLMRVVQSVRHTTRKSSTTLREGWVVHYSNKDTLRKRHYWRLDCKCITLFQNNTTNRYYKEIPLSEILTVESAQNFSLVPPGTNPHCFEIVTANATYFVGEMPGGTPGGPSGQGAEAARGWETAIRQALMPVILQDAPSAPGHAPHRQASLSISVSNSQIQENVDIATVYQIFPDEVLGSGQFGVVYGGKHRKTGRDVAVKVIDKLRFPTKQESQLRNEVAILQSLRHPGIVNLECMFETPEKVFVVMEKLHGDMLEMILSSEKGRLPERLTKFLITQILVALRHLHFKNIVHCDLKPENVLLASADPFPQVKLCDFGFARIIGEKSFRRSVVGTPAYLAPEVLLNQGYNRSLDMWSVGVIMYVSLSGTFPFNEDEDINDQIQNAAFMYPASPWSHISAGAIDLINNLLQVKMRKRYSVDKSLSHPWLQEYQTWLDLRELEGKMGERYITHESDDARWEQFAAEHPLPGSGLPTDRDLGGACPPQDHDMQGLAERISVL

[3] = biological target: T3, selected panels of kinases in HeLa and PC3 cell lysates (Homo sapiens, UniProt P29323); conditions: 10 uM; proteome PC3; peptide […]kIPIR; labeling site Activation Loop
T3 construct: endogenous in cells; host or cells: HeLa and PC3 cell lysates

[4] = biological target: T4, selected panels of kinases in HeLa and PC3 cell lysates (Homo sapiens, UniProt Q9UBF8); conditions: 10 uM, PI4KB, peptide […]kDK, labeling site ATP
T4 construct: endogenous in cells; host or cells: HeLa and PC3 cell lysates

[5] = biological target: T5, selected panels of kinases in HeLa and PC3 cell lysates (Homo sapiens, UniProt P41240); conditions: 10 uM, peptide VSDFGLTk[…], labeling site Activation Loop
T5 construct: endogenous in cells; host or cells: HeLa and PC3 cell lysates

[6] = biological target: T6, selected panels of kinases in HeLa and PC3 cell lysates (Homo sapiens, UniProt Q96S38); conditions: 10 uM; RSKL1 domain1; peptide VLGVIDkVLLVMDTR; proteome HEL; labeling site Protein Kinase Domain
T6 construct: endogenous in cells; host or cells: HeLa and PC3 cell lysates

[7] = biological target: T7, selected panels of kinases in HeLa and PC3 cell lysates (Homo sapiens, UniProt P15735); conditions: 10 uM; PHKg2; peptide ATGHEFAVkIMEVTAER; proteome PC3; labeling site Lys1
T7 construct: endogenous in cells; host or cells: HeLa and PC3 cell lysates

[8] = biological target: T8, selected panels of kinases in HeLa and PC3 cell lysates (Homo sapiens, UniProt Q07912); conditions: 10 uM; proteome HEL; peptide TVSVAVk[…]; labeling site Lys1
T8 construct: endogenous in cells; host or cells: HeLa and PC3 cell lysates

[9] = biological target: T9, selected panels of kinases in HeLa and PC3 cell lysates (Homo sapiens, UniProt P20594); conditions: 10 uM; proteome PC3; peptide […]k[…]; labeling site Lys2
T9 construct: endogenous in cells; host or cells: HeLa and PC3 cell lysates

[10] = biological target: T10, selected panels of kinases in HeLa and PC3 cell lysates (Homo sapiens, UniProt P24941); conditions: 10 uM, peptide DLk[…], labeling site Lys2
T10 construct: endogenous in cells; host or cells: HeLa and PC3 cell lysates

[11] = biological target: T11, selected panels of kinases in HeLa and PC3 cell lysates (Homo sapiens, UniProt O60307); conditions: 10 uM, peptide DLk[…], labeling site Lys2
T11 construct: endogenous in cells; host or cells: HeLa and PC3 cell lysates

[12] = biological target: T12, selected panels of kinases in HeLa and PC3 cell lysates (Homo sapiens, UniProt O00418); conditions: 10 uM, peptide YIkYNSNSGFVR, labeling site Protein Kinase Domain
T12 construct: endogenous in cells; host or cells: HeLa and PC3 cell lysates

[13] = biological target: T13, selected panels of kinases in HeLa and PC3 cell lysates (Homo sapiens, UniProt Q8TBX8); conditions: 10 uM, PIP4K2C, labeling site ATP
T13 construct: endogenous in cells; host or cells: HeLa and PC3 cell lysates
T13 sequence (Q8TBX8 1-421): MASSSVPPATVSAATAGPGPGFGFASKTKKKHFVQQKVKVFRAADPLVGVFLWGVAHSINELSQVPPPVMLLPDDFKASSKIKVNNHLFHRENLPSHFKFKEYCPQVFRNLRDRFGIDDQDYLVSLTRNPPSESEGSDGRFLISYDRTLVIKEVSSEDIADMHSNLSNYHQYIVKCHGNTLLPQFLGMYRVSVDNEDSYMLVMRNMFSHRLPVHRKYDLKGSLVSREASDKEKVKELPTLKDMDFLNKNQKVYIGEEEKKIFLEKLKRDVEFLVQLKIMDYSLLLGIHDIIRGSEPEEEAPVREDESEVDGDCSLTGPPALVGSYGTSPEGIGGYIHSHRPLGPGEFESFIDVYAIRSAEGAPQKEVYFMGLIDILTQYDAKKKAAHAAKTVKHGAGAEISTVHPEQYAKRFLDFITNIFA

[14] = biological target: T14, selected panels of kinases in HeLa and PC3 cell lysates (Homo sapiens, UniProt O94804); conditions: 10 uM
T14 construct: endogenous in cells; host or cells: HeLa and PC3 cell lysates

[15] = peptide ELPTLkDMDFLNK, proteome PC3
[16] = proteome HEL, peptide DLk[…], labeling site Lys2
[17] = proteome HEL, peptide […]kVIETK, labeling site Lys1
[18] = proteome PC3, peptide DLk[…], labeling site Lys2
[19] = proteome PC3, peptide […]kVIETK, labeling site Lys1

T12 sequence (O00418 whole entry, the tested form may be a part): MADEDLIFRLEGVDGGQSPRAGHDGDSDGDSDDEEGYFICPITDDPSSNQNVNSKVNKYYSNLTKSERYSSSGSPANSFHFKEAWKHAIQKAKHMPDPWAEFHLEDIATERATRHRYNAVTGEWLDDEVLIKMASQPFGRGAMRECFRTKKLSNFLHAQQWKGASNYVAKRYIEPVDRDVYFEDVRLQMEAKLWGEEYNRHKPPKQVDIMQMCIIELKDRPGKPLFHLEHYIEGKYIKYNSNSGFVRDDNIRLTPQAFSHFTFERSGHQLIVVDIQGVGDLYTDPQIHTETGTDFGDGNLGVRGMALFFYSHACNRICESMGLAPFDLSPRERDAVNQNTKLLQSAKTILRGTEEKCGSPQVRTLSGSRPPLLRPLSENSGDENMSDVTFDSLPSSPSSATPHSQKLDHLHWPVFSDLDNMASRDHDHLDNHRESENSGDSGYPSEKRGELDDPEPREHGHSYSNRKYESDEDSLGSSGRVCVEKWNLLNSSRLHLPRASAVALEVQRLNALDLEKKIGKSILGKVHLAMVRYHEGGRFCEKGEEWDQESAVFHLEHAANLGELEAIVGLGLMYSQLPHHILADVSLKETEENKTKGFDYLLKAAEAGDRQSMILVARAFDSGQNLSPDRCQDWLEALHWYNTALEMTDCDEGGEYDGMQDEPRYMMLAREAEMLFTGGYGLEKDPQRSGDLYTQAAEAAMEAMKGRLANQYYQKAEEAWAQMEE
T4 sequence (Q9UBF8 whole entry): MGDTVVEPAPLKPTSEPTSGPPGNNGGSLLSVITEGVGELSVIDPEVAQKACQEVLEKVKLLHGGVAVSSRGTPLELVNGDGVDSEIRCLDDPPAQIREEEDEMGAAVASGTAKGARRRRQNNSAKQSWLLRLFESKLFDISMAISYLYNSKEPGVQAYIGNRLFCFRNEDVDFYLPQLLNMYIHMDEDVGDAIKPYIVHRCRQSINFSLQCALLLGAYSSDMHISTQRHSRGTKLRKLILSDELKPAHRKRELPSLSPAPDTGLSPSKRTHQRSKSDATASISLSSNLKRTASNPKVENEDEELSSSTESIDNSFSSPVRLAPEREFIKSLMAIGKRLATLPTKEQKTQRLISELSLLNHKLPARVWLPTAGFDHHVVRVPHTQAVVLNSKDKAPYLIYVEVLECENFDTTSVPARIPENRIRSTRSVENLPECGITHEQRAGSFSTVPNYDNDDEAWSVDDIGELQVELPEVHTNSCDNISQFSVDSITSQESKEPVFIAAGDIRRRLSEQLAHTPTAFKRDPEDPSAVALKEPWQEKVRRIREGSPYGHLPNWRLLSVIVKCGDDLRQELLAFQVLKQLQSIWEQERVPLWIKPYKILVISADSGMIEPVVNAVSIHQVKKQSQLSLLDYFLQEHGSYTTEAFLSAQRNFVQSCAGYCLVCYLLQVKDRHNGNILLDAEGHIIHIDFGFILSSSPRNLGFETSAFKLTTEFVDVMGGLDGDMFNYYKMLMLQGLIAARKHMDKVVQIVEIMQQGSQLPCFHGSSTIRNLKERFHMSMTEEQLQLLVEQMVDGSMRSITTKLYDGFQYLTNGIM
T14 sequence (O94804 whole entry): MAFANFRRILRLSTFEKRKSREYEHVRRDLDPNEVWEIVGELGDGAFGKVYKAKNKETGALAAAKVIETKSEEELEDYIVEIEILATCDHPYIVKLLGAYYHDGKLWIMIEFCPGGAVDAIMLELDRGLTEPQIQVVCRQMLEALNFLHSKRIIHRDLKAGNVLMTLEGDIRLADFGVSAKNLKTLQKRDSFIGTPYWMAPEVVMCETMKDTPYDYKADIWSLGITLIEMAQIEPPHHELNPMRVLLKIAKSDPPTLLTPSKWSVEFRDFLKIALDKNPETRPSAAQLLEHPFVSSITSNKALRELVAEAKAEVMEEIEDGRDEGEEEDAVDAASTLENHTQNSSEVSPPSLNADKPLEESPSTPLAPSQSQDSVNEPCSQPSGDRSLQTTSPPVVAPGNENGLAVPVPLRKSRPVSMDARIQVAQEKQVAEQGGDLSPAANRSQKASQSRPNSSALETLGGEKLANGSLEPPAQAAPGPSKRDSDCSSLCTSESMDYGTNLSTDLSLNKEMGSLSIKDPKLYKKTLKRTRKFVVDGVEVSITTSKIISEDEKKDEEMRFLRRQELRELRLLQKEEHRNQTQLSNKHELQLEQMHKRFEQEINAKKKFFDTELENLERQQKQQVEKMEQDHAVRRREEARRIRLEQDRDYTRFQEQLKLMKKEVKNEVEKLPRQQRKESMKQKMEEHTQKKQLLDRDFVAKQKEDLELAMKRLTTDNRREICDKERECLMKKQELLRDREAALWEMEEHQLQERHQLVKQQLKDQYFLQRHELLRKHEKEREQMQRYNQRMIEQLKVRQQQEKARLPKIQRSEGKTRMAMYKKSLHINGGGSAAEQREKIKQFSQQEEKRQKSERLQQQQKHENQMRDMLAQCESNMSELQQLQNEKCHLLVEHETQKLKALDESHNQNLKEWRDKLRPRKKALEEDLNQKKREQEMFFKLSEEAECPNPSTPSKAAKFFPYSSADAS
T11 sequence (O60307 whole entry): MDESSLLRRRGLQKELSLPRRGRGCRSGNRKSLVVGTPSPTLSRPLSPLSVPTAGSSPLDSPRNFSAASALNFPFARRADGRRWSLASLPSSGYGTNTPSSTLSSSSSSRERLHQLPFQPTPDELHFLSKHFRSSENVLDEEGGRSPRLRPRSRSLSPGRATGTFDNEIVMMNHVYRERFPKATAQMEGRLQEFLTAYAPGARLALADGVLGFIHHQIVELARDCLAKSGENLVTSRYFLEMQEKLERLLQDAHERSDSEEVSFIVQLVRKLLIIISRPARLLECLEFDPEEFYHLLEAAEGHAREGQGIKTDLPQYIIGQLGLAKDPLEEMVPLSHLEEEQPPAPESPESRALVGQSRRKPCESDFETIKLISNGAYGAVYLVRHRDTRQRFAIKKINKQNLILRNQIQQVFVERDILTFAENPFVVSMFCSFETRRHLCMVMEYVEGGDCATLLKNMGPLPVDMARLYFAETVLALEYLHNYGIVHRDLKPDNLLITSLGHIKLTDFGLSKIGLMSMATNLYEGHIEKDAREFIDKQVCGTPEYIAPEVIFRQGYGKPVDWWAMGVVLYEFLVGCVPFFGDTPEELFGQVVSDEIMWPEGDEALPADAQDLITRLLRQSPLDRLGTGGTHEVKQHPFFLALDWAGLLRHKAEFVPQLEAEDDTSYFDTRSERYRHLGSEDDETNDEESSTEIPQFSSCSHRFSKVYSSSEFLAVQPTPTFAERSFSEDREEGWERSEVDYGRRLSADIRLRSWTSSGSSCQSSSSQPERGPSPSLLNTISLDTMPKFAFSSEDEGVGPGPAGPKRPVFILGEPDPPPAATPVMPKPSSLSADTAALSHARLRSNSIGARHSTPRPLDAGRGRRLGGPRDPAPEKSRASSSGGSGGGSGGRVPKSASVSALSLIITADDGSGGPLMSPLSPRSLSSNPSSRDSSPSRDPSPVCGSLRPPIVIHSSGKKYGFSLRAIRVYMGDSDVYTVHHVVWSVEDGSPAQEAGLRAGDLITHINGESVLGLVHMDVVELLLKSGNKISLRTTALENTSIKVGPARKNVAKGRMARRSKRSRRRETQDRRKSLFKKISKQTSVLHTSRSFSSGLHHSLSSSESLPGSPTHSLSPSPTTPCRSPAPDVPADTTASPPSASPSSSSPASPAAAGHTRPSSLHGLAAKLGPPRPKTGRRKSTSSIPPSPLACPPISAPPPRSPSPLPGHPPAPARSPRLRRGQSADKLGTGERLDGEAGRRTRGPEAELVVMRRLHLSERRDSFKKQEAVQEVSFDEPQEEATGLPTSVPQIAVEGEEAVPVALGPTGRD
T5 sequence (P41240 whole entry): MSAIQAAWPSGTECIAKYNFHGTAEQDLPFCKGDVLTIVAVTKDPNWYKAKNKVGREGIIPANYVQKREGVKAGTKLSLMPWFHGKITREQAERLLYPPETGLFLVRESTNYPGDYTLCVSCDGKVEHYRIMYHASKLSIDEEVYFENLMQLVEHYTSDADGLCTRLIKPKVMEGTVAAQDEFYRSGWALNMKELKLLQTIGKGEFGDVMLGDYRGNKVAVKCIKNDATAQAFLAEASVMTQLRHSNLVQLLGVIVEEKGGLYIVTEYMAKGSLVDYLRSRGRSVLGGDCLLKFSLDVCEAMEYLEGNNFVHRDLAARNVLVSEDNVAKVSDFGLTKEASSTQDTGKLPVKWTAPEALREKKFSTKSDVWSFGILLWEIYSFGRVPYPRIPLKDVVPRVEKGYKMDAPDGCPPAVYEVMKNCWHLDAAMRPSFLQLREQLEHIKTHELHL
T1 sequence (Q15131 whole entry): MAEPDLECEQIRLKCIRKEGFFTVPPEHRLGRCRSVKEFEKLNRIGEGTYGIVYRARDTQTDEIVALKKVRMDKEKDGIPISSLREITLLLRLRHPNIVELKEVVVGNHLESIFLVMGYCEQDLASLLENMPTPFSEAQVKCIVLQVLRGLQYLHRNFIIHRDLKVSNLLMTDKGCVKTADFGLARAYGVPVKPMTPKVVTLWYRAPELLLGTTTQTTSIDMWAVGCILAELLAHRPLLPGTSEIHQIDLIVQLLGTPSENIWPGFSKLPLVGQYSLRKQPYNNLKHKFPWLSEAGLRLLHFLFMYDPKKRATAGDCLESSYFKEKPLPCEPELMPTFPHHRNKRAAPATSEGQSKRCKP
T7 sequence (P15735 whole entry): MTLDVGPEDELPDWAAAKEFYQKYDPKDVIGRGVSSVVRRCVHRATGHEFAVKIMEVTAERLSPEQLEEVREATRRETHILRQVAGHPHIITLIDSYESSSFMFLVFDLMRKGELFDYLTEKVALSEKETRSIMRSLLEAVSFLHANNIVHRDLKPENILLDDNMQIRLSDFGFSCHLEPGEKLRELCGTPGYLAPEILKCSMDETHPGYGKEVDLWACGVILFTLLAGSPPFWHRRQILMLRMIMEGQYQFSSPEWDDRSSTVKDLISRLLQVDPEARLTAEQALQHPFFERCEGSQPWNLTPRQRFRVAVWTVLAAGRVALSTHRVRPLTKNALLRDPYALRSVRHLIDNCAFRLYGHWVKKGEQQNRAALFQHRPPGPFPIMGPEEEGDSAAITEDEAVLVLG

SMILES	% Inhibiton, CDK10 [1] [%]	% Inhibition PKD2 ([2]; proteome HEL) [%]	% Inhibition PKD2 ([2]; proteome PC3) [%]	% Inhibiton, EphB2 [3] [%]	% Inhibition PI4KB ([4]; proteome HEL) [%]	% Inhibition PI4KB ([4]; proteome PC3) [%]	% Inhibiton, CSK ([5]; proteome HEL) [%]	% Inhibiton, CSK ([5]; proteome PC3) [%]	% Inhibition RSKL1 domain1 [6] [%]	% Inhibition PHKg2 [7] [%]	% Inhibiton, ACK [8] [%]	% Inhibiton, ANPb [9] [%]	% Inhibiton, CDK2 ([10]; proteome HEL) [%]	% Inhibiton, CDK2 ([10]; proteome PC3) [%]	% Inhibiton, MAST3 ([11]; proteome HEL) [%]	% Inhibiton, MAST3 ([11]; proteome PC3) [%]	% Inhibiton, eEF2K ([12]; proteome HEL) [%]	% Inhibiton, eEF2K ([12]; proteome PC3) [%]	% Inhibition PIP4K2C [13, 15] [%]	% Inhibition PIP4K2C ([13]; peptide TLVIk[…], proteome HEL) [%]	further results
COc1cc(C(=O)N2CCC(N3CCN(C)CC3)CC2)ccc1Nc1ncc2c(n1)N(C1CCCC1)c1ccccc1C(=O)N2C [Compound 25, 11-cyclopentyl-2-((2-methoxy-4-(4-(4-methylpiperazin-1-yl)piperidine-1-carbonyl)phenyl)amino)-5-methyl-5H-benzo[e]pyrimido[5,4-b][1,4]diazepin-6(11H)-one]	-11.0	-7.1	-2.6	-3.8	-21.6	-6.1	6.5	-4.8	~75.1	8.1	43.5	-11.4	9.4	5.0	0.5	-6.8	8.7	-9.1	21.5	9.5	% Inhibition PIP4K2C ([13]; peptide TLVIk[…], proteome PC3): -0.123%; % Inhibiton, LOK [14, 16]: 3.2%; % Inhibiton, LOK [14, 17]: 2.1%; % Inhibiton, LOK [14, 18]: 8.0%; % Inhibiton, LOK [14, 19]: 1.9%
CCOc1cc(C(=O)N2CCC(N3CCN(C)CC3)CC2)ccc1Nc1ncc2c(n1)N(C1CCCC1)c1ccccc1C(=O)N2C [Compound 26]	10.4	-14.3	26.9	-3.1	-1.9	3.6	14.3	-6.9	-6.2	-3.8	20.1	24.3	7	-6.7	-5.1	-3.9	1.2	1.9	-6.2	4.7	% Inhibition PIP4K2C ([13]; peptide TLVIk[…], proteome PC3): -5.8%; % Inhibiton, LOK [14, 16]: -13%; % Inhibiton, LOK [14, 17]: 24.4%; % Inhibiton, LOK [14, 18]: 11.4%; % Inhibiton, LOK [14, 19]: 10%

Source: publication PMC3914206
